Experimental data: patent publication US11572590B2, “Methods for evaluating tumor cell spheroids using 3D microfluidic cell culture device” (Dana-Farber Cancer Institute, Inc., priority 2017, dated 2023)
Where two headings read alike, the source gives them in different places.

Key:
[1] = molecular target: T1, off-target kinases (Homo sapiens, UniProt Q8NE63); test: SelectScreen Kinase Profiling, single point inhibition and IC50 for off-target kinases; type: biochemical; details: HIPK4, ZLYTE, ATP Km app
T1 sequence (Q8NE63 1-616): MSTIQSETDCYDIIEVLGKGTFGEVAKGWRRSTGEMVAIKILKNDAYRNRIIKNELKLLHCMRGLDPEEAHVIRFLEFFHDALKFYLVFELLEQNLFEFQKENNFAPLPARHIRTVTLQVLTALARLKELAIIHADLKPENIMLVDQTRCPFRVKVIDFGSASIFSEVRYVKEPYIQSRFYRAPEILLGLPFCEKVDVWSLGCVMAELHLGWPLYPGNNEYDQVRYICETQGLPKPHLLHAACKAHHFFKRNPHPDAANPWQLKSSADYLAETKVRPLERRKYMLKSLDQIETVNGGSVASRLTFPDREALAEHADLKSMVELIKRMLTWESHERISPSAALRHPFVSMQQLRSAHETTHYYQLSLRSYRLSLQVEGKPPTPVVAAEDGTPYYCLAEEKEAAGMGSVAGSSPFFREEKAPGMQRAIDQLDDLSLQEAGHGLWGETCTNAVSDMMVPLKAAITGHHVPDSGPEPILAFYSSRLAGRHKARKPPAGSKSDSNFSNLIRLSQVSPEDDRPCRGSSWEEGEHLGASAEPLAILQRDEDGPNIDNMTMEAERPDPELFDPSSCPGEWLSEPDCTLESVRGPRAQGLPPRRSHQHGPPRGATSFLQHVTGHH

[2] = molecular target: T2, off-target kinases (Homo sapiens, UniProt Q8WXR4); test: as above; type: biochemical; details: MYO3B (MYO3 beta), LanthaScreen Binding
T2 sequence (Q8WXR4 1-1341): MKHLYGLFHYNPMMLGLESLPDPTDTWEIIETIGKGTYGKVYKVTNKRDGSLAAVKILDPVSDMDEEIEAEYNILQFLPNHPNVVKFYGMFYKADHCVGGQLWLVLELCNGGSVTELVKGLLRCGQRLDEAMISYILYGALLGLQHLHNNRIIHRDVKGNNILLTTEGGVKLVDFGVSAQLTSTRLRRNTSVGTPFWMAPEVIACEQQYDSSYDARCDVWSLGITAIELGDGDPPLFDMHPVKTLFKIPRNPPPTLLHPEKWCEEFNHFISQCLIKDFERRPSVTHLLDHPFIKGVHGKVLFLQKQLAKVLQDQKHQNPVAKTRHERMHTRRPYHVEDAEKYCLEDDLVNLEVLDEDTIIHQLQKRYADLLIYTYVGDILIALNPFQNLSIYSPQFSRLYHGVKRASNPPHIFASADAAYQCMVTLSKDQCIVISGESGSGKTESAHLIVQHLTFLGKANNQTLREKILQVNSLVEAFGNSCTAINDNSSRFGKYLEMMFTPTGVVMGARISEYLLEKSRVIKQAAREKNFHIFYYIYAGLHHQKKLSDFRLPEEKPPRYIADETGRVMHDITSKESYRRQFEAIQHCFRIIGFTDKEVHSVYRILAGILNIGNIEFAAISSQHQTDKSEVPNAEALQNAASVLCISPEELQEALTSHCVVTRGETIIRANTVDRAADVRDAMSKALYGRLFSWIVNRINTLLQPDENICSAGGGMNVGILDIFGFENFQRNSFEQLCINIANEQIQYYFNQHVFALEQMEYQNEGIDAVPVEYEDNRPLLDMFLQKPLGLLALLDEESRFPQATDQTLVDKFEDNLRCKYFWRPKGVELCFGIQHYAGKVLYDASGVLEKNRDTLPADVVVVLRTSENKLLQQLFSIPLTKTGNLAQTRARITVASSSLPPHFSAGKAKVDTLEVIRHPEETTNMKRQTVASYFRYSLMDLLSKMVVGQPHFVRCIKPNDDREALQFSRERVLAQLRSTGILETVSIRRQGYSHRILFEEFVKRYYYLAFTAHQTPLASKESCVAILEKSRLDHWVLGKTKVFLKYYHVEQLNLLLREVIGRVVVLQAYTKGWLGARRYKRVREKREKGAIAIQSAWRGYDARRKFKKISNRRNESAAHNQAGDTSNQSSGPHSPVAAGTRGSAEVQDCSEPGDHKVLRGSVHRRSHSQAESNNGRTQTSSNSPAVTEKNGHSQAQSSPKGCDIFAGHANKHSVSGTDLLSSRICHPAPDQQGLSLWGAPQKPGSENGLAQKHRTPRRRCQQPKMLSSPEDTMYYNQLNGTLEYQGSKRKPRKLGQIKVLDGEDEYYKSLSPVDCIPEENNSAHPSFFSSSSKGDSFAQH

N#Cc1cc(-c2ncnc(Nc3ccc(N4CCN(C5COC5)CC4)cc3)n2)ccc1OC1CCOCC1 [Compound 1, 5-(4-((4-(4-(oxetan-3-yl)piperazin-1-yl)phenyl)amino)-1,3,5-triazin-2-yl)-2-((tetrahydro-2H-pyran-4-yl)oxy)benzonitrile]
inhibition ([1]; read-out: % Inhibition 1): 18% | inhibition ([1]; read-out: % Inhibition 2): 14% | inhibition ([1]; read-out: % Inhibition Avg): 16% | inhibition ([2]; read-out: % Inhibition 1): 17% | inhibition ([2]; read-out: % Inhibition 2): 20% | inhibition ([2]; read-out: % Inhibition Avg): 18%
